Test results: ChEMBL document CHEMBL1144019 (Bioorg Med Chem, 2008)
In brackets after ≈: the same amount, converted by molar mass.

Experiments:
Type in all cases: functional
[1] = tested on: Moraxella catarrhalis; assay: Antibacterial activity against Moraxella catarrhalis ATCC 43617 by standard serial agar dilution method
[2] = tested on: Staphylococcus aureus; assay: Antibacterial activity against Staphylococcus aureus Smith by standard serial agar dilution method
[3] = tested on: Pseudomonas aeruginosa; assay: Antibacterial activity against Pseudomonas aeruginosa SR-5393 by standard serial agar dilution method
[4] = tested on: Escherichia coli; assay: Antibacterial activity against Toho 2 producing Escherichia coli by standard serial agar dilution method
[5] = tested on: Haemophilus influenzae; assay: Antibacterial activity against Haemophilus influenzae ATCC 49766 by standard serial agar dilution method
[6] = tested on: Pseudomonas aeruginosa; assay: Antibacterial activity against imipenem-resistant Pseudomonas aeruginosa SR-6554 by standard serial agar dilution method
[7] = tested on: Escherichia coli; assay: Antibacterial activity against Escherichia coli SR-21003 by standard serial agar dilution method
[8] = tested on: Streptococcus pneumoniae; assay: Antibacterial activity against penicillin-resistant Streptococcus pneumoniae SR-16675 by standard serial agar dilution method
[9] = tested on: Pseudomonas aeruginosa; assay: Antibacterial activity against AmpC hyperproducing Pseudomonas aeruginosa SR24-12 by standard serial agar dilution method
[10] = tested on: Haemophilus influenzae; assay: Antibacterial activity against beta-lactamase negative ampicillin-resistant Haemophilus influenzae SR-11435 by standard serial agar dilution method
[11] = tested on: Enterobacter cloacae; assay: Antibacterial activity against Enterobacter cloacae ATCC 13047 by standard serial agar dilution method
[12] = tested on: Enterobacter cloacae; assay: Antibacterial activity against AmpC producing Enterobacter cloacae SR-4321 by standard serial agar dilution method
[13] = tested on: Pseudomonas aeruginosa; assay: Antibacterial activity against Pseudomonas aeruginosa SR24 by standard serial agar dilution method

Structure (SMILES) | MIC [1] [µg/mL] | MIC [2] [µg/mL] | MIC [3] [µg/mL] | MIC [4] [µg/mL] | MIC [5] [µg/mL] | MIC [6] [µg/mL] | MIC [7] [µg/mL] | MIC [8] [µg/mL] | MIC [9] [µg/mL] | MIC [10] [µg/mL] | MIC [11] [µg/mL] | MIC [12] [µg/mL] | MIC [13] [µg/mL]
C[C@H](O/N=C(\C(=O)N[C@@H]1C(=O)N2C(C(=O)[O-])=C(C[n+]3cccc4c3ccn4CC(=O)O)CS[C@H]12)c1nc(N)sc1Cl)C(=O)O | 0.032 (≈ 0.0482 µM) | 8 (≈ 12 µM) | 4 (≈ 6.02 µM) | 4 (≈ 6.02 µM) | 0.016 (≈ 0.0241 µM) | 32 (≈ 48.2 µM) | 0.5 (≈ 0.753 µM) | 4 (≈ 6.02 µM) | 32 (≈ 48.2 µM) | 0.063 (≈ 0.0949 µM) | 1 (≈ 1.51 µM) | 16 (≈ 24.1 µM) | 2 (≈ 3.01 µM)
C[C@H](O/N=C(\C(=O)N[C@@H]1C(=O)N2C(C(=O)[O-])=C(C[n+]3cccc4c3nc(N)n4C3CCNCC3)CS[C@H]12)c1nc(N)sc1Cl)C(=O)O | 0.016 (≈ 0.0227 µM) | 2 (≈ 2.84 µM) | 2 (≈ 2.84 µM) | 2 (≈ 2.84 µM) | 0.016 (≈ 0.0227 µM) | 4 (≈ 5.67 µM) | 0.25 (≈ 0.355 µM) | 2 (≈ 2.84 µM) | 2 (≈ 2.84 µM) | 0.063 (≈ 0.0893 µM) | 0.25 (≈ 0.355 µM) | 2 (≈ 2.84 µM) | 0.5 (≈ 0.709 µM)
C[C@H](O/N=C(\C(=O)N[C@@H]1C(=O)N2C(C(=O)[O-])=C(C[n+]3cccc4c3ccn4CCO)CS[C@H]12)c1nc(N)sc1Cl)C(=O)O | 0.016 (≈ 0.0246 µM) | 2 (≈ 3.08 µM) | 4 (≈ 6.15 µM) | 2 (≈ 3.08 µM) | 0.032 (≈ 0.0492 µM) | 16 (≈ 24.6 µM) | 0.25 (≈ 0.385 µM) | 4 (≈ 6.15 µM) | 8 (≈ 12.3 µM) | 0.063 (≈ 0.0969 µM) | 0.5 (≈ 0.769 µM) | 4 (≈ 6.15 µM) | 1 (≈ 1.54 µM)
C[C@H](N)CCn1c(N)nc2c1ccc[n+]2CC1=C(C(=O)[O-])N2C(=O)[C@@H](NC(=O)/C(=N\O[C@@H](C)C(=O)O)c3nc(N)sc3Cl)[C@H]2SC1 | 0.008 (≈ 0.0115 µM) | 2 (≈ 2.89 µM) | 2 (≈ 2.89 µM) | 2 (≈ 2.89 µM) | 0.016 (≈ 0.0231 µM) | 8 (≈ 11.5 µM) | 0.25 (≈ 0.361 µM) | 2 (≈ 2.89 µM) | 4 (≈ 5.77 µM) | 0.063 (≈ 0.0909 µM) | 0.5 (≈ 0.721 µM) | 2 (≈ 2.89 µM) | 0.5 (≈ 0.721 µM)
CNCCCc1cc[n+](CC2=C(C(=O)[O-])N3C(=O)[C@@H](NC(=O)/C(=N\O[C@@H](C)C(=O)O)c4nc(N)sc4Cl)[C@H]3SC2)cc1 | 0.032 (≈ 0.0501 µM) | 8 (≈ 12.5 µM) | 4 (≈ 6.27 µM) | 4 (≈ 6.27 µM) | 0.125 (≈ 0.196 µM) | 16 (≈ 25.1 µM) | 1 (≈ 1.57 µM) | 4 (≈ 6.27 µM) | 8 (≈ 12.5 µM) | 0.25 (≈ 0.392 µM) | 1 (≈ 1.57 µM) | 8 (≈ 12.5 µM) | 1 (≈ 1.57 µM)
CNCCn1ncc2c1ccc[n+]2CC1=C(C(=O)[O-])N2C(=O)[C@@H](NC(=O)/C(=N\O[C@@H](C)C(=O)O)c3nc(N)sc3Cl)[C@H]2SC1 | 0.032 (≈ 0.0482 µM) | 4 (≈ 6.02 µM) | 4 (≈ 6.02 µM) | 4 (≈ 6.02 µM) | 0.125 (≈ 0.188 µM) | 16 (≈ 24.1 µM) | 1 (≈ 1.51 µM) | 4 (≈ 6.02 µM) | 8 (≈ 12 µM) | 0.125 (≈ 0.188 µM) | 1 (≈ 1.51 µM) | 4 (≈ 6.02 µM) | 1 (≈ 1.51 µM)
CC(=O)NCCn1ccc2c1ccc[n+]2CC1=C(C(=O)[O-])N2C(=O)[C@@H](NC(=O)/C(=N\O[C@@H](C)C(=O)O)c3nc(N)sc3Cl)[C@H]2SC1 | 0.032 (≈ 0.0463 µM) | 4 (≈ 5.79 µM) | 4 (≈ 5.79 µM) | 2 (≈ 2.89 µM) | 0.032 (≈ 0.0463 µM) | 16 (≈ 23.1 µM) | 0.25 (≈ 0.362 µM) | 4 (≈ 5.79 µM) | 8 (≈ 11.6 µM) | 0.125 (≈ 0.181 µM) | 0.5 (≈ 0.723 µM) | 4 (≈ 5.79 µM) | 2 (≈ 2.89 µM)
C[C@H](O/N=C(\C(=O)N[C@@H]1C(=O)N2C(C(=O)[O-])=C(C[n+]3cccc4[nH]ccc43)CS[C@H]12)c1nc(N)sc1Cl)C(=O)O | 0.016 (≈ 0.0264 µM) | 1 (≈ 1.65 µM) | 2 (≈ 3.3 µM) | 1 (≈ 1.65 µM) | 0.016 (≈ 0.0264 µM) | 8 (≈ 13.2 µM) | 0.25 (≈ 0.413 µM) | 2 (≈ 3.3 µM) | 4 (≈ 6.6 µM) | 0.032 (≈ 0.0528 µM) | 0.25 (≈ 0.413 µM) | 2 (≈ 3.3 µM) | 1 (≈ 1.65 µM)
C[C@H](O/N=C(\C(=O)N[C@@H]1C(=O)N2C(C(=O)[O-])=C(C[n+]3ccc(NC4CNC4)cc3)CS[C@H]12)c1nc(N)sc1Cl)C(=O)O | 0.016 (≈ 0.0251 µM) | 2 (≈ 3.14 µM) | 2 (≈ 3.14 µM) | 4 (≈ 6.28 µM) | 0.063 (≈ 0.0989 µM) | 8 (≈ 12.6 µM) | 0.5 (≈ 0.785 µM) | 4 (≈ 6.28 µM) | 4 (≈ 6.28 µM) | 0.25 (≈ 0.392 µM) | 0.5 (≈ 0.785 µM) | 4 (≈ 6.28 µM) | 0.5 (≈ 0.785 µM)
C[C@H](O/N=C(\C(=O)N[C@@H]1C(=O)N2C(C(=O)[O-])=C(C[n+]3cccc4c3ccn4CCNC(N)=O)CS[C@H]12)c1nc(N)sc1Cl)C(=O)O | 0.032 (≈ 0.0462 µM) | 4 (≈ 5.78 µM) | 4 (≈ 5.78 µM) | 2 (≈ 2.89 µM) | 0.032 (≈ 0.0462 µM) | 16 (≈ 23.1 µM) | 0.25 (≈ 0.361 µM) | 4 (≈ 5.78 µM) | 8 (≈ 11.6 µM) | 0.063 (≈ 0.091 µM) | 0.5 (≈ 0.722 µM) | 4 (≈ 5.78 µM) | 1 (≈ 1.44 µM)
